According to patent EP0269017B1, “Therapeutic combination of free-radical scavenger or metabolic inhibitor and biologically active protein” (CETUS ONCOLOGY CORPORATION, priority 1986, dated 1988):
Read-outs that look alike come from different tables or passages of the source.

How the values were obtained:
[1] = tested on: Meth-A tumor cells; assay: TNF mutein with NDGA, aspirin or both in mice with Meth-A tumor (Example 5); settings: no TNF, aspirin 30 mg/kg i.v. and/or NDGA 15.6 mg/kg i.p. every third day 3 times; for △TW: day 14
Method: Female Balb/c mice were treated by subcutaneous implantation of Meth-A tumor cells as described in Example 1.
Details of the protocols are in the footnotes of Table VI. PBS was used as a control. Results were evaluated 14 days after initiation of treatment. The headings are defined in the footnotes of Table I. TABLE VI

[2] = tested on: Meth-A tumor cells; format: in vivo, Female Balb/c mice; settings: uric acid 25 mg/kg alone, i.v. once daily for five days
Method: (§1) Female Balb/c mice were implanted subcutaneously with Meth-A tumor cells as described in Example 1.
An IL-2 mutein, designated des-ala₁-IL2-ser125 (with no alanine at position 1 of the mature IL-2 molecule and a serine at position 125 of the mature IL-2 molecule), was prepared by the method described in U.S. Patent No. 4,518,584, supra, isolated from refractile bodies in accordance with the procedure described in EP-A-0 206 828, published December 30, 1986, and formulated as described in U.S. Patent No. 4,604,377 in sodium dodecyl sulfate.
Table IX indicates the results obtained when the IL-2 mutein described herein alone, uric acid alone, and various combination injections of the IL-2 mutein and uric acid were administered intravenously to five mice per group (2-3 repeats) beginning seven days after tumor implantation and once daily for five days, with the uric acid being administered immediately prior to (about 10 minutes) the IL-2 administration when both were administered. Final measurements were made on day 14. The excipient control was injected with PBS. The uric acid doses were all 25 mg/kg of mice weight.

[3] = tested on: methylcholanthrene-induced murine fibrosarcoma (Meth-A); format: in vivo, Female Balb/c mice; settings: uric acid 25 mg/kg alone, i.v. every third day three times
Source text: Female Balb/c mice (Charles River Breeding Laboratories, Inc., Wilmington, MA) that were all 6-8 weeks old were employed in the in vivo tests. Animals were weight matched at 20 ± 3 g, randomized at five per cage, and ear-notched. All animals were held in quarantine observation for seven days after arrival, maintained in microisolator cages (Lab Products, Inc.), and fed standard laboratory diets and drinking water ad lib.
A mutein of human TNF-α having the first eight amino acids deleted from the N-terminus was prepared as described In U.S. Patent No. 4,677,064 Issued June 30, 1987 and Wang et al., Science (1985) 228:149-153. Briefly, TNF was induced from HL-60 cells and purified and sequenced. Then an intronless sequence encoding human TNF was prepared by producing enriched mRNA, constructing a cDNA library, selecting a probe and probing the library to recover the sequence. Then an ATG start codon was introduced immediately preceding the GTC sequence encoding N-terminal valine of the mature protein by site-directed mutagenesis. Clones were selected and strands ligated into expression vectors to obtain prokaryotic expression of the mutein. […]
The uric acid dose was slightly below the maximum concentration attainable without decreasing animal weight, determined in a preliminary toxicity study, and was given immediately prior to the TNF inoculation. […]

[4] = tested on: Meth-A tumor cells; assay: TNF mutein and vitamin C in mice with Meth-A tumor (Example 2); format: in vivo, Female Balb/c mice; settings: for % Control △BW / Cures (△TW=0, or no visible tumor after 21 days from start of treatment) / Deaths / % Control △TW: i.v. every third day for three injections; for % Control △BW / % Control △TW: day 14
Source text: as §1

[5] = tested on: Meth-A tumor cells; assay: TNF mutein and aspirin in mice with Meth-A tumor (Example 4)
Method: Female Balb/c mice were treated by subcutaneous implantation of Meth-A tumor cells as described in Example 1. Five mice per group were employed. Treatment was initiated seven days after the implantation.
A protocol was employed wherein aspirin or the TNF mutein of Example 1 alone, or aspirin together with the TNF mutein, were administered intravenously. In the combination group, aspirin was administered daily for five days and each dose was followed 1-4 hours later by TNF. PBS was used as a control.
The headings are defined in the footnotes of Table I. TABLE V

[6] = Smith et al., cited from earlier work
[7] = tested on: Meth-A tumor cells; assay: TNF mutein and BSO in mice with Meth-A tumor (Example 3); format: in vivo, Female Balb/c mice; settings: BSO 1.25 g/kg alone, i.p. twice daily for ten days
Method: Female Balb/c mice were implanted subcutaneously with Meth-A tumor cells as described in Example 1. Treatment was initiated seven days after the implantation.
A protocol was employed wherein BSO or the TNF mutein of Example 1 alone, or BSO together with the TNF mutein, were administered. BSO was administered intraperitonally and TNF intravenously. The BSO was started 24 hours prior to TNF administration twice daily (6-8 hours between doses) for ten days and TNF was given with the second BSO dose every third day for three times. BSO excipient was used as a volume control in the TNF alone groups. PBS was used as a control. The protocol is illustrated below: [formula]
Table III illustrates the results of this study, with the headings defined in the footnotes to Table II. The numbers in parentheses indicate the results from a repeat of the experiment.

[8] = Vit.C 7 mg/kg, TNF 125 µg/kg where given
[9] = Vit.C 35 mg/kg, TNF 125 µg/kg where given
[10] = Vit.C 70 mg/kg, TNF 125 µg/kg where given
[11] = aspirin 30 mg/kg alone, i.v., 14 days after treatment began

For `CC(Cc1ccc(O)c(O)c1)C(C)Cc1ccc(O)c(O)c1` (stereo not drawn) [NDGA, nordihydroguaiaretic acid (4,4'-[2,3-dimethyl-1,4-butanediyl]-bis[1,2-benzenediol])], the Cures [1] was 0/5 and the “△TW” value [1] was 50.8.
For `O=c1[nH]c(=O)c2[nH]c(=O)[nH]c2[nH]1` [Uric acid, uric acid], the Cures [2] was 0/5, the “△TW” value ([2]; day 14) was 42.3 and the “Cures (△TW=0, or no visible tumor after 21 days from start of treatment)” value [3] was 0/14. For the same compound, the “△TW (ratio of mean tumor volume at 14 days to start of treatment)” value [3] was 51.7 ± 17.7.
In the case of `O=C1O[C@H]([C@@H](O)CO)C(O)=C1O` [Vit.C, Ascorbic Acid], the “% Control △BW” value ([4]; Vit.C 7 mg/kg, TNF 125 µg/kg immediately after where given) is reported as 92%, the “Cures (△TW=0, or no visible tumor after 21 days from start of treatment)” value [4, 8] is reported as 0/5 and the Deaths [4, 8] is reported as 0/5. The “% Control △TW” value [4, 8] was 76%, the “Cures (△TW=0, or no visible tumor after 21 days from start of treatment)” value [4, 9] was 0/5 and the Deaths [4, 9] was 0/5. The “% Control △BW” value [4, 9] was 100%, the “% Control △TW” value [4, 9] was 88% and the “Cures (△TW=0, or no visible tumor after 21 days from start of treatment)” value [4, 10] was 0/5. For the same compound, the Deaths [4, 10] was 0/5, the “% Control △BW” value [4, 10] was 96% and the “% Control △TW” value [4, 10] was 74%. For the same compound, the “toxicity of vitamin C alone” value ([4]; at the three doses tested (7, 35, 70 mg/kg)) was “non-toxic”.
With `CC(=O)Oc1ccccc1C(=O)O` [Aspirin] the Cures [1] was 0/5, the Deaths ([1]; NDGA cell adds (1 tumor death d. 14), aspirin + NDGA cell adds (d. 5)) was 0/5 and the “△TW” value [1] was 60.3. The Cures ([5]; aspirin 30 mg/kg alone, i.v.) was 0/5, the Deaths ([5]; aspirin 30 mg/kg alone, i.v.) was 0/5 and the “△BW” value [5, 11] was 1.34. The “△TW” value [5, 11] was 66.6 and the “toxicity of aspirin alone” value ([5]; aspirin 30 mg/kg, single dose or once a day for five days) was “non-toxic”.
For `CCCCS(=N)(=O)CCC(N)C(=O)O` (stereo not drawn) [BSO, Buthionine Sulphoximine], the toxicity ([6]; 400-800 mg/kg of BSO orally every eight hours, fifteen doses) is listed as “toxic”, the toxicity ([6]; fifteen doses of 100 mg/kg/dose of BSO orally every eight hours, Proceedings of AACR, 28 (March 1987), p. 440) is listed as “relatively non-toxic” and the “Cures (no palpable tumor on day 14)” value [7] is listed as 0/10. The Deaths [7] was 0/10, the “△TW” value ([7]; mean values) was 29.8 and the “△BW” value ([7]; mean values of two experiments) was 1.19.
